# Experimental data reported in patent US20240217957A1, “HETEROCYCLIC COMPOUND AND USE THEREOF” (TAKEDA PHARMACEUTICAL COMPANY LIMITED, priority 2022, published 2024).
# Target: T1, human OX2 receptor (Homo sapiens, UniProt O43614)
# T1 construct: expressed in transfected cells
# T1 sequence (O43614 1-444): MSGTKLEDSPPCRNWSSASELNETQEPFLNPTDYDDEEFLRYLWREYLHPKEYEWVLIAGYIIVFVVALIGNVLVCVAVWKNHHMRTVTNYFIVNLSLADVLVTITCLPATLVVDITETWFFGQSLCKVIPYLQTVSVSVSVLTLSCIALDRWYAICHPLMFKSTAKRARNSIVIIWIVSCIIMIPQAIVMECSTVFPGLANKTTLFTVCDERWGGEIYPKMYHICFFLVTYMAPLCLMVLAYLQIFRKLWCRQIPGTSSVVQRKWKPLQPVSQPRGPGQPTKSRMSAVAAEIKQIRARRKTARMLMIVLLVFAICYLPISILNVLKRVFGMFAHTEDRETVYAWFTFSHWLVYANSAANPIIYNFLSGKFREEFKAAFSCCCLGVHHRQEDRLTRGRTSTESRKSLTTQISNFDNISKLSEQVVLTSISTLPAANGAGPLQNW
# Assay: Measurement of orexin type 2 receptor agonist activity (calcium fluorescence, Fluo-4 AM, FDSS)
# Format: cell-based
# Conditions: compound at 3 μM; CHO cells forcibly expressing human OX2 receptor; DMSO = 0%, 10 nM orexin A (human) = 100%
# Method in brief: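 Agonist response is expressed as % of the fluorescence change given by 10 nM human orexin A, with DMSO as 0%, read over 1 min 40 s on FDSS after compound addition. Cells: stable human OX2 (1-444) CHO-K1 clones, dye-loaded with Fluo-4 AM plus probenecid in HEPES-buffered HBSS with 0.1% BSA.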
row,Compound,"OX2R agonist activity (3 μM, %)"
1,"Cc1cnc([C@@H]2CC(N3C[C@@H](F)[C@H](NS(=O)(=O)CF)C3)=NO2)c(-c2c(F)cccc2F)c1 [Example 65, N-[(3R,4R)-1-{(5S)-5-[3-(2,6-difluorophenyl)-5-methylpyridin-2-yl]-4,5-dihydro-1,2-oxazol-3-yl}-4-fluoropyrrolidin-3-yl]-1-fluoromethanesulfonamide]",97%
2,"Cc1cnc([C@@H]2CC(N3CC[C@H](NS(=O)(=O)C(F)F)C3)=NO2)c(-c2c(F)cc(F)cc2F)c1 [Example 66, 1,1-difluoro-N-[(3S)-1-{(5S)-5-[5-methyl-3-(2,4,6-trifluorophenyl)pyridin-2-yl]-4,5-dihydro-1,2-oxazol-3-yl}pyrrolidin-3-yl]methanesulfonamide]",99%
3,"O=S(=O)(N[C@@H]1CN(C2=NOC(c3ncc(F)cc3-c3c(F)cccc3F)C2)CC1(F)F)C1CC1 (stereo partly drawn) [Example 67, N-[(3R)-1-{5-[3-(2,6-difluorophenyl)-5-fluoropyridin-2-yl]-4,5-dihydro-1,2-oxazol-3-yl}-4,4-difluoropyrrolidin-3-yl]cyclopropanesulfonamide]",98%
4,"Cc1cnc([C@@H]2CC(N3C[C@H](F)[C@H](NS(=O)(=O)CF)C3)=NO2)c(-c2c(F)cccc2F)c1 [Example 68, N-[(3R,4S)-1-{(5S)-5-[3-(2,6-difluorophenyl)-5-methylpyridin-2-yl]-4,5-dihydro-1,2-oxazol-3-yl}-4-fluoropyrrolidin-3-yl]-1-fluoromethanesulfonamide]",104%
5,"CS(=O)(=O)N[C@@H]1CN(C2=NOC(c3ncc(F)cc3-c3c(F)cccc3F)C2)CC1(F)F (stereo partly drawn) [Example 69, N-[(3R)-1-{5-[3-(2,6-difluorophenyl)-5-fluoropyridin-2-yl]-4,5-dihydro-1,2-oxazol-3-yl}-4,4-difluoropyrrolidin-3-yl]methanesulfonamide]",95%
6,"CS(=O)(=O)N[C@@H]1CN(C2=NOC(c3ncc(F)cc3-c3c(F)cc(F)cc3F)C2)CC1(F)F (stereo partly drawn) [Example 70, N-[(3R)-4,4-difluoro-1-{5-[5-fluoro-3-(2,4,6-trifluorophenyl)pyridin-2-yl]-4,5-dihydro-1,2-oxazol-3-yl}pyrrolidin-3-yl]methanesulfonamide]",94%
7,"COCC1(NS(C)(=O)=O)CCN(C2=NO[C@H](c3ncc(C)cc3-c3c(F)cccc3F)C2)C1 (stereo partly drawn) [Example 73, N-[1-{(5S)-5-[3-(2,6-difluorophenyl)-5-methylpyridin-2-yl]-4,5-dihydro-1,2-oxazol-3-yl}-3-(methoxymethyl)pyrrolidin-3-yl]methanesulfonamide]",102%
8,"Cc1cnc([C@@H]2CC(O[C@H]3C[C@H](NS(C)(=O)=O)C3)=NO2)c(-c2c(F)cc(F)cc2F)c1 [Example 74, N-[(1s,3r)-3-({(5S)-5-[5-methyl-3-(2,4,6-trifluorophenyl)pyridin-2-yl]-4,5-dihydro-1,2-oxazol-3-yl}oxy)cyclobutyl]methanesulfonamide]",58%
9,"Cc1cnc(C2(C)CC(N3C[C@@H](NS(C)(=O)=O)C(F)(F)C3)=NO2)c(-c2c(F)cccc2F)c1 (stereo partly drawn) [Example 76, N-[(3R)-1-{5-[3-(2,6-difluorophenyl)-5-methylpyridin-2-yl]-5-methyl-4,5-dihydro-1,2-oxazol-3-yl}-4,4-difluoropyrrolidin-3-yl]methanesulfonamide]",108%
10,"Cc1cnc([C@@H]2CC(N3C[C@@H](F)[C@H](NS(=O)(=O)N(C)C)C3)=NO2)c(-c2c(F)cc(F)cc2F)c1 [Example 77, N′-[(3R,4R)-4-fluoro-1-{(5S)-5-[5-methyl-3-(2,4,6-trifluorophenyl)pyridin-2-yl]-4,5-dihydro-1,2-oxazol-3-yl}pyrrolidin-3-yl]-N,N-dimethylsulfuric diamide]",102%
11,"Cc1cnc([C@@H]2CC(N3C[C@@H](F)[C@H](NS(=O)(=O)N(C)C)C3)=NO2)c(-c2c(F)cccc2F)c1 [Example 78, N′-[(3R,4R)-1-{(5S)-5-[3-(2,6-difluorophenyl)-5-methylpyridin-2-yl]-4,5-dihydro-1,2-oxazol-3-yl}-4-fluoropyrrolidin-3-yl]-N,N-dimethylsulfuric diamide]",102%
12,"Cc1cnc([C@@H]2CC(N3C[C@H](F)[C@H](NS(=O)(=O)N(C)C)C3)=NO2)c(-c2c(F)cccc2F)c1 [Example 79, N′-[(3R,4S)-1-{(5S)-5-[3-(2,6-difluorophenyl)-5-methylpyridin-2-yl]-4,5-dihydro-1,2-oxazol-3-yl}-4-fluoropyrrolidin-3-yl]-N,N-dimethylsulfuric diamide]",100%
13,"CS(=O)(=O)N[C@@H]1CN(C2=NOC(c3ncc(Cl)cc3-c3c(F)cccc3F)C2)C[C@@H]1F (stereo partly drawn) [Example 80, N-[(3R,4S)-1-{5-[5-chloro-3-(2,6-difluorophenyl)pyridin-2-yl]-4,5-dihydro-1,2-oxazol-3-yl}-4-fluoropyrrolidin-3-yl]methanesulfonamide]",97%
14,"Cc1cnc([C@@H]2CC(N3C[C@H](F)[C@H](NS(=O)(=O)C(F)F)C3)=NO2)c(-c2c(F)cccc2F)c1 [Example 81, N-[(3R,4S)-1-{(5S)-5-[3-(2,6-difluorophenyl)-5-methylpyridin-2-yl]-4,5-dihydro-1,2-oxazol-3-yl}-4-fluoropyrrolidin-3-yl]-1,1-difluoromethanesulfonamide]",100%
15,"Cc1cnc([C@@H]2CC(N3C[C@H](F)[C@H](NS(=O)(=O)CF)C3)=NO2)c(-c2c(F)cc(F)cc2F)c1 [Example 82, 1-fluoro-N-[(3R,4S)-4-fluoro-1-{(5S)-5-[5-methyl-3-(2,4,6-trifluorophenyl)pyridin-2-yl]-4,5-dihydro-1,2-oxazol-3-yl}pyrrolidin-3-yl]methanesulfonamide]",98%

# Results, then the compound that gave them:
row,"OX2R agonist activity (3 μM, %)",Compound
1,103%,"Cc1cnc([C@@H]2CC(N3C[C@H](F)[C@H](NS(=O)(=O)N(C)C)C3)=NO2)c(-c2c(F)cc(F)cc2F)c1 [Example 83, N′-[(3R,4S)-4-fluoro-1-{(5S)-5-[5-methyl-3-(2,4,6-trifluorophenyl)pyridin-2-yl]-4,5-dihydro-1,2-oxazol-3-yl}pyrrolidin-3-yl]-N,N-dimethylsulfuric diamide]"
2,97%,"CS(=O)(=O)N[C@@H]1CN(C2=NOC(c3ncc(Cl)cc3-c3c(F)cc(F)cc3F)C2)C[C@@H]1F (stereo partly drawn) [Example 84, N-[(3R,4S)-1-{5-[5-chloro-3-(2,4,6-trifluorophenyl)pyridin-2-yl]-4,5-dihydro-1,2-oxazol-3-yl}-4-fluoropyrrolidin-3-yl]methanesulfonamide]"
3,99%,"CS(=O)(=O)N[C@@H]1CN(C2=NOC(c3ncc(Br)cc3-c3c(F)cc(F)cc3F)C2)C[C@@H]1F (stereo partly drawn) [Example 85, N-[(3R,4S)-1-{5-[5-bromo-3-(2,4,6-trifluorophenyl)pyridin-2-yl]-4,5-dihydro-1,2-oxazol-3-yl}-4-fluoropyrrolidin-3-yl]methanesulfonamide]"
4,95%,"Cc1cnc(C2(CF)CC(N3C[C@H](F)[C@H](NS(C)(=O)=O)C3)=NO2)c(-c2c(F)cccc2F)c1 (stereo partly drawn) [Example 86, N-[(3R,4S)-1-{5-[3-(2,6-difluorophenyl)-5-methylpyridin-2-yl]-5-(fluoromethyl)-4,5-dihydro-1,2-oxazol-3-yl}-4-fluoropyrrolidin-3-yl]methanesulfonamide]"
5,104%,"CS(=O)(=O)N[C@H]1CCN(C2=NOC(CF)(c3ncc(F)cc3-c3c(F)cccc3F)C2)C1 (stereo partly drawn) [Example 87, N-[(3S)-1-{5-[3-(2,6-difluorophenyl)-5-fluoropyridin-2-yl]-5-(fluoromethyl)-4,5-dihydro-1,2-oxazol-3-yl}pyrrolidin-3-yl]methanesulfonamide]"
6,112%,"CCS(=O)(=O)N[C@H]1CCN(C2=NOC(CF)(c3ncc(F)cc3-c3c(F)cccc3F)C2)C1 (stereo partly drawn) [Example 88, N-[(3S)-1-{5-[3-(2,6-difluorophenyl)-5-fluoropyridin-2-yl]-5-(fluoromethyl)-4,5-dihydro-1,2-oxazol-3-yl}pyrrolidin-3-yl]ethanesulfonamide]"
7,93%,"O=S(=O)(N[C@H]1CCN(C2=NOC(CF)(c3ncc(F)cc3-c3c(F)cccc3F)C2)C1)C1(F)CC1 (stereo partly drawn) [Example 89, N-[(3S)-1-{5-[3-(2,6-difluorophenyl)-5-fluoropyridin-2-yl]-5-(fluoromethyl)-4,5-dihydro-1,2-oxazol-3-yl}pyrrolidin-3-yl]-1-fluorocyclopropane-1-sulfonamide]"
8,98%,"CS(=O)(=O)N[C@@H]1CN(C2=NOC(c3ncc(F)cc3-c3c(F)cc(F)cc3F)C2)C[C@@H]1F (stereo partly drawn) [Example 90, N-[(3R,4S)-4-fluoro-1-{5-[5-fluoro-3-(2,4,6-trifluorophenyl)pyridin-2-yl]-4,5-dihydro-1,2-oxazol-3-yl}pyrrolidin-3-yl]methanesulfonamide]"
9,98%,"COCS(=O)(=O)N[C@@H]1CN(C2=NO[C@H](c3ncc(C)cc3-c3c(F)cc(F)cc3F)C2)C[C@@H]1F [Example 91, N-[(3R,4S)-4-fluoro-1-{(5S)-5-[5-methyl-3-(2,4,6-trifluorophenyl)pyridin-2-yl]-4,5-dihydro-1,2-oxazol-3-yl}pyrrolidin-3-yl]-1-methoxymethanesulfonamide]"
